{"source": "patent US20160120848A1", "about": "“SPECIFIC CANCER TREATMENT REGIMES WITH GANETESPIB” (SYNTA PHARMACEUTICALS CORP., priority 2013, published 2016)", "origin": "cited, not measured here", "key": {"Kasumi-1 cells": {"system": "Kasumi-1 cells", "details": "Kasumi-1, acute myeloid leukemia cell line with c-Kit mutation; cited from earlier work"}, "FLT3 with Hsp90": {"system": "FLT3 with Hsp90", "details": "cited from earlier work"}, "[1]": {"system": "leukemia cells that express either wild type FLT3 or FLT3-ITD mutations", "details": "cells expressing wild type FLT3 or FLT3-ITD mutations; cited from earlier work"}}}
{"smiles": "C=CCNC1=C2C[C@@H](C)C[C@H](OC)[C@H](O)[C@@H](C)/C=C(\\C)[C@H](OC(N)=O)[C@@H](OC)/C=C\\C=C(/C)C(=O)NC(=CC1=O)C2=O", "note": "[17AAG]", "values": [{"measurement": "apoptosis", "setting": "Kasumi-1 cells", "value": "induce apoptosis"}, {"measurement": "effect on association of FLT3 with Hsp90", "setting": "FLT3 with Hsp90", "value": "disrupt the association of FLT3 with Hsp90"}, {"measurement": "growth of leukemia cells", "setting": "[1]", "value": "inhibited"}]}
